Measurements published in publication PMC8524858, “Dual inhibition of αvβ6 and αvβ1 reduces fibrogenesis in lung tissue explants from patients with IPF” (Respiratory Research, 2021).

Assays:
[1] = test system: αvβ1-induced TGF-β activation; test: TGF-β co-culture assay, CHO-αv cells with MLEC luciferase reporter cells; type: cell-based, human; settings: integrin αvβ1
Method: SW-β6 cells and MLECs or CHO-αv cells and MLECs were cultured in 96-well plates with test compounds or antibodies for 20 h at 37 °C in a 5% CO2 incubator. […] Measurement of MLEC luciferase production resulting from αvβ6- or αvβ1-mediated TGF-β activation was performed using the Bright-Glo Luciferase Assay System (Promega; Madison, WI, USA) according to manufacturer’s instruction. Luminescence was quantified by a Tecan Spark 10M plate reader. IC50 curves were generated using Dotmatics software suite with five-parameter logistic curve fitting. Geometric mean IC50 was calculated for each compound from multiple independent analyses.

[2] = test system: bleomycin-challenged C57BL/6 mice; test: In vivo bleomycin mouse model of pulmonary fibrosis; settings: Day 7 to Day 21 after bleomycin
Method: C57BL/6 mice (Charles River; Hollister, CA, USA) were administered 3 units/kg bleomycin (Teva; Toronto, ON, Canada) or vehicle (water) via oropharyngeal aspiration. Lung tissue and bronchioalveolar lavage (BAL) cells were collected after 14 or 21 days to evaluate Smad phosphorylation and collagen deposition.
OHP levels and fractional synthesis rates were determined similar to that previously described.
Formalin-fixed, paraffin-embedded mouse lung tissue sections underwent SHG imaging to characterize the quantity and quality of fibrillar collagen deposition using methods similar to that previously described.
For pSmad3 and total Smad3 quantitation, lung tissues or bronchoalveolar lavage (BAL) cells were lysed in RIPA buffer with protease inhibitor cocktail (Thermo Fisher; #78442). Total protein concentration was normalized across lysates following quantitation by bicinchoninic acid protein assay (Thermo Fisher; #23225). MSD GOLD 96 Small Spot Streptavidin plates were rinsed with PBST, followed by incubation with 1 µg/ml of biotinylated anti-Smad2/3 antibody under agitation for 1 h. Following a second rinse, a 50:50 mix of unknown sample and PBST was added to duplicate wells. Following a 1 h incubation and another rinse, 1 µg/ml of sulfo-tag-labeled anti-pSmad3 or anti-Smad3 antibody was added and incubated for 1 h under agitation. After a final rinse, 1x read buffer was added and the plate was read using an MSD sector imager instrument (SECTOR S 600). pSmad3/Smad3 signal ratios were compared across time points to calculate fold changes.
Male, 8-week-old C57BL/6 mice (Charles River; Hollister, CA, USA) were administered 3 U/kg bleomycin (Teva) or vehicle (water) via oropharyngeal aspiration while under anesthesia (ketamine/xylazine). […] Total lung weights were recorded, and right lobes were snap-frozen and stored at -80 °C. […]
OHP levels in mouse lung tissue were determined similar to that previously described (E15) using the QuickZyme hydroxyproline assay kit (QuickZyme Biosciences; Leiden, Netherlands). […] Hydrolysate was adjusted to 4 M HCl and analyzed for OHP concentrations in a 96-well format, according to manufacturer’s instruction. Absorbance was read at 570 nm with an Infinite M200 PRO microtiter plate reader (Tecan; Crailsheim, Germany) and total lung OHP levels calculated from OHP concentrations (µg OHP/mg tissue) by normalizing to total lung weight. […]
Formalin-fixed paraffin embedded sections prepared from mouse lung tissue underwent SHG imaging to characterize both the quantity and quality of fibrillar collagen deposition using methods similar to that previously described (E16). […]

human integrin αvβ3 = molecular target: T1, human integrin αvβ3 (Homo sapiens, UniProt P05106+P06756); test: Integrin ligand-binding assay, αvβ3 (vitronectin ligand)
T1 construct: purchased R&D Systems 3050-AV
Method: Integrin ligand-binding assays were performed similar to that previously described.
Microplates were coated with recombinant human integrins dissolved in PBS (2 µg/ml, overnight at room temperature). Following removal of the coating solution, plates were washed with PBS. Plates were blocked with 200 µL/well of blocking buffer (2% bovine serum albumin [BSA] in PBS) at 37 °C for 1 h. […] Plates were incubated for 2 h at 25 °C, washed, and incubated for 1 h with biotin-labeled anti-fibronectin or anti-LAP antibodies (for αvβ1 or αvβ6/αvβ8, respectively).

[3] = test system: normal human lung fibroblast adhesion to LAP; test: Primary cell LAP adhesion assay (cell impedance), normal HLF; type: cell-based; settings: HLFs isolated from normal lung tissue, read-out: IC50 for blocking adhesion to LAP
Method: Adhesion of primary human lung cells to LAP was quantified using the xCELLigence RTCA MP instrument (ACEA Biosciences; San Diego, CA, USA) via cell impedance measurements similar to that previously described.
Adhesion assays were performed using the xCELLigence RTCA MP instrument (ACEA Biosciences; San Diego, CA, USA) on 96-well PET plates (ACEA Biosciences; 300600910) via a cell impedance measurement similar to one previously described (E6). Plates were coated with LAP (Sino Biological; 10804-H08H1) overnight at 4 °C and blocked with BSA for 2 h at 37 °C. NHLF (40,000 cells/well), dHLF (40,000 cells/well), or NHBE (20,000 cells per well) in FBS-free media were combined with small-molecule integrin inhibitors or antibodies in the plates and incubated at 37 °C with 5% CO2. […] Anti-αv antibody, 17E6, and anti-β1 antibody, P5D2, were tested at a single concentration (10 μg/ml). Cell impedance (cell index) was measured at baseline and every 3 min for up to 24 h using xCELLigence RTCA 2.1.0 Software (ACEA Biosciences). […] Geometric mean IC50 was calculated for each compound following repeat analyses of multiple donor cells.

T1 sequence (P06756 31-992 limits assumed): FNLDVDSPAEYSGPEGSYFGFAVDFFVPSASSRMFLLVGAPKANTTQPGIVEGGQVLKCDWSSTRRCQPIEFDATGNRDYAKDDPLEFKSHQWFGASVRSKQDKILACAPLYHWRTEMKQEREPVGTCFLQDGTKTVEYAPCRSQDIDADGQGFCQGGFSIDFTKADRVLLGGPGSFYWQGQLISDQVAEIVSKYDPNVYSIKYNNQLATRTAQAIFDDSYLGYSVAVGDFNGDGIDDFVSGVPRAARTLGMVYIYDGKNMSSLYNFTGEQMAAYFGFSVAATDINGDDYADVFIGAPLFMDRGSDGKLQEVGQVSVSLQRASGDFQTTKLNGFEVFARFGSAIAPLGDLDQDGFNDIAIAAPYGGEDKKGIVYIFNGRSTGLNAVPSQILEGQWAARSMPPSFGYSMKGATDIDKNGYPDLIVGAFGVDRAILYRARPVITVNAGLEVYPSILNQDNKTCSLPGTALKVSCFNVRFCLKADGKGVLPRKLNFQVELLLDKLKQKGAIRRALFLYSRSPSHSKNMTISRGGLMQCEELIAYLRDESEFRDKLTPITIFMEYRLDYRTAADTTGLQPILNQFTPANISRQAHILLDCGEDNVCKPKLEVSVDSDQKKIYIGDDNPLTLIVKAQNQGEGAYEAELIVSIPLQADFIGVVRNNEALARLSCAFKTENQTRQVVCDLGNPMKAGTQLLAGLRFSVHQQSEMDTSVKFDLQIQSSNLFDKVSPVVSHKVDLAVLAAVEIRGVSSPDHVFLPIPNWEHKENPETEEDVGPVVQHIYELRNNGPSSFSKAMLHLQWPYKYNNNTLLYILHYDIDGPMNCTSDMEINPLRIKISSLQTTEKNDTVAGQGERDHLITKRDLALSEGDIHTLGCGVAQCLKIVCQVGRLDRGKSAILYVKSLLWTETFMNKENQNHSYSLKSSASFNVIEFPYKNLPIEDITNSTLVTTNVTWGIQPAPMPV
T1 sequence (P05106 27-718 limits assumed): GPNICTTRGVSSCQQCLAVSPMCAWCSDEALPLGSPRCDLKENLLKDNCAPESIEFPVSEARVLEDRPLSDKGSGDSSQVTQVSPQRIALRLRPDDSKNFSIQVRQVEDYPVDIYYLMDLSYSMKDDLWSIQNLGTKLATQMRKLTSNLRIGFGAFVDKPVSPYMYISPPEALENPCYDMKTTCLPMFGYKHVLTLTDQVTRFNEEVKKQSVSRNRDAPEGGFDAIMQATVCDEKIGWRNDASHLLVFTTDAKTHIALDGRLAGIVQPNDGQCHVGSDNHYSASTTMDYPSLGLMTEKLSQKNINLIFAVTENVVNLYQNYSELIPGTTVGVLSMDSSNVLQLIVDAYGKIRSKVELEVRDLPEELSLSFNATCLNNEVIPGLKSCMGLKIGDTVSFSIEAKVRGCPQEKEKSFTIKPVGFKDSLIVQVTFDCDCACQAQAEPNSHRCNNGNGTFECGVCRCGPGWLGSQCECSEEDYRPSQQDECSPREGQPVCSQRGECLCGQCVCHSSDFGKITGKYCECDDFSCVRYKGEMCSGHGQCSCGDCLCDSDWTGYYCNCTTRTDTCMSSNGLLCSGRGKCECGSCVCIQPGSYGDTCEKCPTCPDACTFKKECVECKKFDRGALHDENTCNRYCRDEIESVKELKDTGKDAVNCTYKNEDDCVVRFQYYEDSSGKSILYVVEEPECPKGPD

**Q.** Which “Fold selectivity (vs αvβ6)” value ([1]; TGF-β activation) does the source give for `COCCN(CCCCc1ccc2c(n1)NCCC2)CC[C@H](Nc1ncnc2ccccc12)C(=O)O` [PLN-74809] here?
**A.** 0.6×

**Q.** What about the IC50 [1] of the same compound?
**A.** 19.2 nM

**Q.** And the “Smad3 phosphorylation in lung tissue” value ([2]; oral 100, 250, 500 mg/kg BID)?
**A.** dose-dependently blocked

**Q.** And the “interstitial fibrillar collagen deposition (SHG imaging)” value ([2]; oral 100, 250, 500 mg/kg BID, vs vehicle)?
**A.** dose-dependent, significant reduction

**Q.** What about the “total pulmonary hydroxyproline levels” value ([2]; oral 100-500 mg/kg BID, vs vehicle (Fig. S3A)) of the same compound?
**A.** dose-dependently reduced

**Q.** What about the “hydroxyproline deposition rate (2H incorporation)” value ([2]; oral 100-500 mg/kg BID, vs vehicle (Fig. S3B)) of the same compound?
**A.** dose-dependently reduced

**Q.** And the IC50 (human integrin αvβ3)?
**A.** > 10000 nM

**Q.** What about the “Fold selectivity (vs αvβ6)” value (human integrin αvβ3; ligand binding) of the same compound?
**A.** > 1754×

**Q.** What about the IC50 [3] of the same compound?
**A.** 15.7 nM
